In patent US20190030139A1, “USP10 MODULATION OF AMPK AND MTOR” (MAYO FOUNDATION FOR MEDICAL EDUCATION AND RESEARCH, priority 2016, published 2019):

How the values were obtained:
AMPK [1] = assay: Immunoblot of AMPK activation in HCT116 cells treated with Spautin-1; type: cell-based; conditions: indicated concentration of Spautin-1, immunoblot (FIG. 1I)
Method: FIG. 1A is a picture of an immunoblot showing the effect of USP10 knockdown on AMPK activation. HCT116 cells were infected with lentivirus encoding the indicated shRNAs. Cell lysates were immunoblotted as indicated. FIGS. 1B and 1C are a picture (FIG. 1B) and a graph (FIG. 1C) showing Oil-Red-O staining of HCT116 cells with or without shRNA knockdown of USP10. Control or USP10 knockdown HCT116 cells were incubated in medium supplemented with 200 μM sodium oleate overnight (20 hours) and fixed with formalin. The intracellular lipid droplet abundance was assessed by Oil-Red-O staining. The results represent the means (±SEM) of three independent experiments. **, p<0.01. FIG. 1D is a graph plotting lactate concentration in HCT116 cells. Lactate production was measured after incubation of control and USP10 knockdown HCT116 cells in medium for 48 hours. […] FIG. 1E is a graph plotting relative expression of aldoa, ldha, and pdkl mRNA in control or USP10 knockdown HCT116 cells, as determined by qPCR. Transcript levels were determined relative to actin mRNA levels, and normalized relative to control cells. […] The intracellular lipid droplet abundance was assessed by Oil-Red-O staining. […] The relative expression of aldoa, ldha, and pdkl mRNA in the indicated cells was determined by qPCR. Transcript levels were determined relative to actin mRNA levels, and normalized relative to control cells. […]

cancer cells = assay: Survival of cancer cells with and without USP10 after treatment with everolimus; type: cell-based
From the text: FIGS. 12A and 12B are pictures of immunoblots from co-immuno-precipitation assays showing that USP10 interacts with mTOR. […] FIG. 12D is a graph plotting survival of cancer cells with and without USP10, after treatment with the mTOR inhibitor, everolimus. […] FIG. 12E is a graph plotting survival of cancer cells with and without USP10 knockdown by shRNA, after treatment with everolimus.

Ub-AMC = assay: In vitro deubiquitinase enzymatic assay with Ub-AMC; type: biochemical; conditions: purified USP10 incubated with or without active AMPK (FIG. 9A)
Method: In vitro deubiquitinase enzymatic assay—In vitro enzymatic assays using ubiquitin-7-amido-4-methylcoumarin (Ub-AMC; U-550; Boston Biochem) were performed in 50-100 μl reaction buffer (20 mM HEPES-KOH [pH 7.8], 20 mM NaCl, 0.1 mg/ml ovalbumin [A7641; Sigma], 0.5 mM EDTA, and 10 mM DTT) at 25° C. Fluorescence was monitored in an INFINITE® M1000 PRO Fluorometer (TECAN).

AMPK [2] = assay: AMPK in vitro kinase assay (32P incorporation into peptides); type: biochemical
Method: AMPK in vitro kinase assay—Purified AMPK (Upstate Biotechnology) was incubated with various substrates (0.5 μg) in kinase reaction buffer (15 mM HEPES, pH 7.0, 1 mm dithiothreitol, 18.75 mM MgCl2, 1.25 mM EGTA, and 125 μM ATP and 12.5 μCi of radiolabeled ATP, with or without 150 μM AMP, at 30° C. for 30 minutes. The product was separated by SDS-PAGE and subjected to autoradiography. Phosphorylation was detected by incorporation of radiolabeled [γ-32P] ATP. To study the stoichiometry of phosphorylation of the USP10 S76 [TLPRTPSYSISST (SEQ ID NO:19), synthesized by Peptide 2.0] and SAMS (Abcam) peptides by AMPK, the peptides (20 μM) were individually incubated in 100 μl of reaction buffer at 30° C. Aliquots (10 μl) were removed at various times to measure ^32P incorporation.

ubiquitinated AMPKα = assay: In vitro deubiquitination of AMPKα; type: biochemical; conditions: bacterially-expressed USP10, ubiquitinated AMPKα substrate (FIGS. 3H and 4C)
From the text: In vitro deubiquitination of AMPKα—To prepare ubiquitinated AMPKα as the substrate for the in vitro deubiquitination assay, HCT116 cells were transfected with both HA-Ub and FLAG-AMPKα. […] Following extensive washing with the FLAG-lysis buffer, proteins were eluted with FLAG-peptides (Sigma). The recombinant His-USP10 and USP10CA polypeptides were expressed in BL21 cells and purified with the His-tag purification column (Novagen). For the in vitro deubiquitination assay, ubiquitinated AMPK protein was incubated with recombinant USP10 in a deubiquitination buffer (50 mM Tris-HCl pH 8.0, 50 mM NaCl, 1 mM EDTA, 10 mM DTT, 5% glycerol) overnight at 16° C.

## Fc1ccc(CNc2ncnc3ccc(F)cc23)cc1 [Spautin-1]
AMPK [1]
  AMPK activation: largely inhibited

## CO[C@H]1C[C@@H]2CC[C@@H](C)[C@@](O)(O2)C(=O)C(=O)N2CCCC[C@H]2C(=O)O[C@H]([C@H](C)C[C@@H]2CC[C@@H](OCCO)[C@H](OC)C2)CC(=O)[C@H](C)/C=C(\C)[C@@H](O)[C@@H](OC)C(=O)[C@H](C)C[C@H](C)/C=C/C=C/C=C/1C [everolimus]
Cancer cells; USP10 shRNA knockdown vs control shRNA (FIG. 12E)
  survival of cancer cells: greater effect on survival of USP10 knockdown cells than on cells treated with a control shRNA
Cancer cells; cells with vs without USP10 (FIG. 12D)
  survival of cancer cells: decreased in the absence of USP10

## S76A mutant: USP10 with S76 mutated to Ala
Ub-AMC
  deubiquitinase activity toward Ub-AMC: remained low

## USP10 peptide: synthesized USP10 S76 peptide TLPRTPSYSISST (SEQ ID NO:19) (listed as Homo sapiens)
AMPK [2]; after 30 minutes of incubation, calculated from FIG. 8D data (FIG. 8E)
  maximal stoichiometry of phosphorylation by AMPK: 0.46±0.04 mol/mol
AMPK [2]; peptide 20 μM, 30° C., mean ±SEM of three experiments (FIG. 8D)
  initial rate of phosphorylation by AMPK: 155±36 pmol/min/reaction mix

## WT USP10: recombinant wild type USP10 deubiquitinase (SEQ ID NO:2), bacterially expressed
Ubiquitinated AMPKα
  deubiquitination of AMPKα in vitro: removed ubiquitin chain from AMPKα

## phosphorylated USP10: USP10 phosphorylated using active AMPK in vitro
Ub-AMC
  deubiquitinase activity toward Ub-AMC: much higher activity toward Ub-AMC
